Source: patent publication US20240018157A1, “CYCLIC COMPOUNDS AND METHODS OF USING SAME” (Schrödinger, Inc., priority 2019, published 2024)

Biological target: full-length MALT1 protein His-MALT1(1-824) (Homo sapiens (Human), UniProt Q9UDY8)
Assay: MALT1 protease assay, Assay 2 (1 nM MALT1, Ac-LRSR-AMC substrate)
Assay type: biochemical
Settings: 1 nM MALT1, 50 μM Ac-LRSR-AMC, 2 h pre-incubation, 8 hr incubation at RT
Description: MALT1 protease activity was assessed in an in vitro assay using a tetrapeptide as substrate and full-length MALT1 protein His-MALT1(1-824) purified from baculovirus-infected insect cells.
The final assay buffer includes 1 nM (Assay 2) or 2 nM (Assay 1) of MALT1 full-length protein, 50 μM Ac-LRSR-AMC substrate, 50 mM Tris pH 7.5, 600 mM Sodium Citrate, 1 mM DTT, 1 mM EDTA, and 0.05% BSA in 384-well plate format using black microtiter square well plates (Optiplate 384-F, Perkin Elmer).
Test compounds were dissolved in 100% DMSO at stock of 10 mM, with final DMSO concentration 0.1%. Test compounds were pre-incubated with MALT1 protein for 2 h at room temperature. Substrate was added after the pre-incubation and fluorescence signal was measured using Envision at excitation 355 nm and emission 460 nm after 8 hr incubation at RT.
The fluorescence units were transformed to percentage of remaining activity by using the high control (HC, median of fluorescence signal from wells containing MALT1 protein, substrate, and DMSO) and low control (LC, median of fluorescence signal from wells with substrate only) with the formula below: […]
IC50 and Hill coefficient were obtained using Graph Pad Prism (Graph Pad software, Inc, USA) with non-linear regression analysis.

Chain of full-length MALT1 protein His-MALT1(1-824) (Q9UDY8 whole entry): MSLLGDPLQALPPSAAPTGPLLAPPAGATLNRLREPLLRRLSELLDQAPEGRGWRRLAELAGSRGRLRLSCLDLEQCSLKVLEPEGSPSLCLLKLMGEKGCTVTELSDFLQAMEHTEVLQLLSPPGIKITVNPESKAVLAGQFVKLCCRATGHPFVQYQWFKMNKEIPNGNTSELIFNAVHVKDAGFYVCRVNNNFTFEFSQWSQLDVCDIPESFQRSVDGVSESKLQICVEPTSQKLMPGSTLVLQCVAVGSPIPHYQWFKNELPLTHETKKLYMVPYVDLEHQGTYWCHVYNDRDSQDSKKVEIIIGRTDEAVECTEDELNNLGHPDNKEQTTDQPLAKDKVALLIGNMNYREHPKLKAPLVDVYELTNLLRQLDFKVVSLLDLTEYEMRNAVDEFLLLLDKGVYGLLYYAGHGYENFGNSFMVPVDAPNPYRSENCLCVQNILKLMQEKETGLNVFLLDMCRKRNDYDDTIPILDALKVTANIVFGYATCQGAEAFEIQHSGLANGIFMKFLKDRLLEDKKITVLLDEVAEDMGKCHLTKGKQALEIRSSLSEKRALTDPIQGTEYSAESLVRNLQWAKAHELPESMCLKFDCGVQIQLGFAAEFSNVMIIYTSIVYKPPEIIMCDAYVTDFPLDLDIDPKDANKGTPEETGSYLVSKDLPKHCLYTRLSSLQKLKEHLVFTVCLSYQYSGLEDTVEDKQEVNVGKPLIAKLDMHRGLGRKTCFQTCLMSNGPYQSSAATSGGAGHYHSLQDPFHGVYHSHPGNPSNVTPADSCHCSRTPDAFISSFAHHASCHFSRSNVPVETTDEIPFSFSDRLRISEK

Row | SMILES | IC50 [nM]
1 | C[C@@]1(C(F)(F)F)CN(C(=O)Nc2ccnc(C(F)(F)F)c2F)c2cnc3cc(Cl)nn3c21 [compound 100, (R)-2-chloro-N-(3-fluoro-2-(trifluoromethyl)pyridin-4-yl)-8-methyl-8-(trifluoromethyl)-7,8-dihydro-6H-pyrazolo[1,5-a]pyrrolo[2,3-e]pyrimidine-6-carboxamide] | 100 to 1000
2 | CN(C)c1cc(NC(=O)N2C[C@@](C)(C(F)(F)F)c3c2cnc2cc(Cl)nn32)cnn1 [compound 101, (R)-2-chloro-N-(6-(dimethylamino)pyridazin-4-yl)-8-methyl-8-(trifluoromethyl)-7,8-dihydro-6H-pyrazolo[1,5-a]pyrrolo[2,3-e]pyrimidine-6-carboxamide] | 100 to 1000
3 | C[C@@]1(C(F)(F)F)CN(C(=O)Nc2cc(C(F)F)on2)c2cnc3cc(Cl)nn3c21 [compound 102, (R)-2-chloro-N-(5-(difluoromethyl)isoxazol-3-yl)-8-methyl-8-(trifluoromethyl)-7,8-dihydro-6H-pyrazolo[1,5-a]pyrrolo[2,3-e]pyrimidine-6-carboxamide] | 100 to 1000
4 | C[C@@]1(C(F)(F)F)CN(C(=O)Nc2cc(C(F)F)ncn2)c2cnc3cc(Cl)nn3c21 [compound 106, (R)-2-chloro-N-(6-(difluoromethyl)pyrimidin-4-yl)-8-methyl-8-(trifluoromethyl)-7,8-dihydro-6H-pyrazolo[1,5-a]pyrrolo[2,3-e]pyrimidine-6-carboxamide] | 10 to 100
5 | C[C@@]1(C(F)(F)F)CN(C(=O)Nc2cc(C(F)F)n[nH]2)c2cnc3cc(Cl)nn3c21 [compound 107, (R)-2-chloro-N-(3-(difluoromethyl)-1H-pyrazol-5-yl)-8-methyl-8-(trifluoromethyl)-7,8-dihydro-6H-pyrazolo[1,5-a]pyrrolo[2,3-e]pyrimidine-6-carboxamide] | 10 to 100
6 | C[C@@H](N)COc1cc(NC(=O)N2C[C@@](C)(C(F)(F)F)c3c2cnc2cc(Cl)nn32)cn(C(F)F)c1=O [compound 109, (R)-N-(5-((R)-2-aminopropoxy)-1-(difluoromethyl)-6-oxo-1,6-dihydropyridin-3-yl)-2-chloro-8-methyl-8-(trifluoromethyl)-7,8-dihydro-6H-pyrazolo[1,5-a]pyrrolo[2,3-e]pyrimidine-6-carboxamide] | 100 to 1000
7 | CN1CC(Oc2cc(NC(=O)N3C[C@@](C)(C(F)(F)F)c4c3cnc3cc(Cl)nn43)cn(C(F)F)c2=O)C1 [compound 110, (R)-2-chloro-N-(1-(difluoromethyl)-5-((1-methylazetidin-3-yl)oxy)-6-oxo-1,6-dihydropyridin-3-yl)-8-methyl-8-(trifluoromethyl)-7,8-dihydro-6H-pyrazolo[1,5-a]pyrrolo[2,3-e]pyrimidine-6-carboxamide] | 100 to 1000
8 | CNc1nnc(C(F)(F)F)cc1NC(=O)N1C[C@@](C)(C(F)(F)F)c2c1cnc1cc(Cl)nn21 [compound 112, (R)-2-chloro-8-methyl-N-(3-(methylamino)-6-(trifluoromethyl)pyridazin-4-yl)-8-(trifluoromethyl)-7,8-dihydro-6H-pyrazolo[1,5-a]pyrrolo[2,3-e]pyrimidine-6-carboxamide] | 100 to 1000
9 | CC1(C)CN=C(c2ncc(NC(=O)N3C[C@@](C)(C(F)(F)F)c4c3cnc3cc(Cl)nn43)cc2Cl)O1 [compound 118] | 10 to 100
10 | CN1CC(Oc2cc(NC(=O)N3C[C@@](C)(C(F)(F)F)c4c3cnc3cc(Cl)nn43)cc(C(F)(F)F)n2)C1 [compound 121, (R)-2-chloro-8-methyl-N-(2-((1-methylazetidin-3-yl)oxy)-6-(trifluoromethyl)pyridin-4-yl)-8-(trifluoromethyl)-7,8-dihydro-6H-pyrazolo[1,5-a]pyrrolo[2,3-e]pyrimidine-6-carboxamide] | 10 to 100
11 | CN1CC(Oc2cc(NC(=O)N3C[C@@](C)(C(F)(F)F)c4c3cnc3cc(Cl)nn43)cc(C(F)F)n2)C1 [compound 130, (R)-2-chloro-N-(2-(difluoromethyl)-6-((1-methylazetidin-3-yl)oxy)pyridin-4-yl)-8-methyl-8-(trifluoromethyl)-7,8-dihydro-6H-pyrazolo[1,5-a]pyrrolo[2,3-e]pyrimidine-6-carboxamide] | 100 to 1000
12 | C[C@@]1(C(F)(F)F)CN(C(=O)Nc2cc(C(F)(F)F)n[nH]2)c2cnc3cc(Cl)nn3c21 [compound 131, (R)-2-chloro-8-methyl-8-(trifluoromethyl)-N-(3-(trifluoromethyl)-1H-pyrazol-5-yl)-7,8-dihydro-6H-pyrazolo[1,5-a]pyrrolo[2,3-e]pyrimidine-6-carboxamide] | 10 to 100
13 | CNc1cc(NC(=O)N2C[C@@](C)(C(F)(F)F)c3c2cnc2cc(Cl)nn32)cnc1-n1nccn1 [compound 132, (R)-2-chloro-8-methyl-N-(5-(methylamino)-6-(2H-1,2,3-triazol-2-yl)pyridin-3-yl)-8-(trifluoromethyl)-7,8-dihydro-6H-pyrazolo[1,5-a]pyrrolo[2,3-e]pyrimidine-6-carboxamide] | 100 to 1000
14 | C[C@@]1(C(F)(F)F)CN(C(=O)Nc2cc(C(F)F)nnc2C#N)c2cnc3cc(Cl)nn3c21 [compound 143, (R)-2-chloro-N-(3-cyano-6-(difluoromethyl)pyridazin-4-yl)-8-methyl-8-(trifluoromethyl)-7,8-dihydro-6H-pyrazolo[1,5-a]pyrrolo[2,3-e]pyrimidine-6-carboxamide] | 100 to 1000
15 | C[C@@]1(C(F)(F)F)CN(C(=O)Nc2cc(C(F)F)nnc2C(N)=O)c2cnc3cc(Cl)nn3c21 [compound 148, (R)-N-(3-carbamoyl-6-(difluoromethyl)pyridazin-4-yl)-2-chloro-8-methyl-8-(trifluoromethyl)-7,8-dihydro-6H-pyrazolo[1,5-a]pyrrolo[2,3-e]pyrimidine-6-carboxamide] | 100 to 1000
16 | CC(C)(O)Cn1ccc(-c2ncc(NC(=O)N3C[C@@](C)(C(F)(F)F)c4c3cnc3cc(F)nn43)cc2C(F)F)n1 [compound 162, (R)-N-(5-(difluoromethyl)-6-(1-(2-hydroxy-2-methylpropyl)-1H-pyrazol-3-yl)pyridin-3-yl)-2-fluoro-8-methyl-8-(trifluoromethyl)-7,8-dihydro-6H-pyrazolo[1,5-a]pyrrolo[2,3-e]pyrimidine-6-carboxamide] | 10 to 100
17 | Cn1cc(NC(=O)N2C[C@@](C)(C(F)(F)F)c3c2cnc2cc(Cl)nn32)cn1 [compound 164, (R)-2-chloro-8-methyl-N-(1-methyl-1H-pyrazol-4-yl)-8-(trifluoromethyl)-7,8-dihydro-6H-pyrazolo[1,5-a]pyrrolo[2,3-e]pyrimidine-6-carboxamide] | 100 to 1000
18 | C[C@@]1(C(F)(F)F)CN(C(=O)NC2CCC3(CC2)CC3)c2cnc3cc(Cl)nn3c21 [compound 172, (R)-2-chloro-8-methyl-N-(spiro[2.5]octan-6-yl)-8-(trifluoromethyl)-7,8-dihydro-6H-pyrazolo[1,5-a]pyrrolo[2,3-e]pyrimidine-6-carboxamide] | 100 to 1000
19 | CC(C)(O)c1cnn(-c2ncc(NC(=O)N3C[C@@](C)(C(F)(F)F)c4c3cnc3cc(Cl)nn43)cc2Cl)n1 [compound 180, (R)-2-chloro-N-(5-chloro-6-(4-(2-hydroxypropan-2-yl)-2H-1,2,3-triazol-2-yl)pyridine-3-yl)-8-methyl-8-(trifluoromethyl)-7,8-dihydro-6H-pyrazolo[1,5-a]pyrrolo[2,3-e]pyrimidine-6-carboxamide] | 100 to 1000
20 | Cc1cn2ccc3c(c2n1)C(C)(C(F)(F)F)CN3C(=O)Nc1cnc(-n2nccn2)c(Cl)c1 (stereo not shown) [compound 193, N-(5-chloro-6(2H-1,2,3-triazol-2-yl)pyridin-3-yl)-2,9-dimethyl-9-(trifluoromethyl)-8,9-dihydro-7H-imidazo[1,2-a]pyrrolo[3,2-c]pyridine-7-carboxamide] | 10 to 100
21 | CN1CC[C@H](Oc2cc(OC(F)F)cc(NC(=O)N3C[C@@](C)(C(F)(F)F)c4c3cnc3cc(Cl)nn43)n2)C1 [compound 198, (R)-2-chloro-N-(4-(difluoromethoxy)-6-(((S)-1-methylpyrrolidin-3-yl)oxy)pyridin-2-yl)-8-methyl-8-(trifluoromethyl)-7,8-dihydro-6H-pyrazolo[1,5-a]pyrrolo[2,3-e]pyrimidine-6-carboxamide] | 10 to 100
22 | C[C@@]1(C(F)(F)F)CN(C(=O)Nc2cnc(C(=O)N3CCC3)c(C(F)F)c2)c2cnc3cc(Cl)nn3c21 [compound 203, (R)-N-(6-(azetidine-1-carbonyl)-5-(difluoromethyl)pyridin-3-yl)-2-chloro-8-methyl-8-(trifluoromethyl)-7,8-dihydro-6H-pyrazolo[1,5-a]pyrrolo[2,3-e]pyrimidine-6-carboxamide] | 100 to 1000
